Experimental data taken from US6951840B2, “Lipoglycopeptide antibiotics” (priority 2001, dated 2005).
In brackets after ≈: the same amount, converted by molar mass.

Key:
[1] = test system: E. coli EL683; assay: Broth micro-dilution MIC, E. coli EL683; type: cell-based; settings: Escherichia coli, MHII broth, 23-24 hr at 37° C.
Description: (§1) The in vitro antibacterial activity of lipoglycopeptides 1, 2, 5, 6, 7, and 8 is determined according to the National Committee for Clinical Laboratory Standards (NCCLS) recommendations for broth micro-dilution assay using 2xsTH (Todd Hewitt broth), MHII (cation adjusted Mueller Hinton broth) or HTM medium (Haemophilus Test Medium) (Gerhardt, P., et al., (1994) Methods for General and Molecular Bacteriology. American Society for Microbiology, Washington, D.C.). Bacterial strains used for antibacterial assay include both gram-positive and gram-negative bacteria: S. pneumoniae R6, Staphylococcus aureus SA027, Haemophilus influenzae ATCC 49247, E. coli EL683 and EL744. A two-fold serial dilution of the test compound is prepared in 100% DMSO. The assay is performed in the wells of a sterile 96-well microplate, that is inoculated with bacterial cell suspension in growth medium or broth as above. The final volume is 100 μl cell suspension, containing 2.5% DMSO. The starting concentration of bacterial cells is 5×10^5 CFU/ml. The 96-well microplate is incubated for 23-24 hr at 37° C. in an ambient air incubator. Upon completion of incubation, the MIC (minimal inhibitory concentration) is determined by visual examination of the microplate with the aid of a magnifying mirror apparatus. The MIC is the lowest concentration of compound tested that results in no visible sign of bacterial growth.

[2] = target: T1, S. pneumoniae SPase I (Streptococcus pneumoniae serotype 4, UniProt O07344); assay: Fluorimetric IC50 determination, S. pneumoniae signal peptidase; type: biochemical; settings: 50 nM SPase I, 50 μM fluorogenic substrate, 37° C., 1-2 hrs
T1 construct: made in house
Description: Procedures for cloning, expression and purification of S. pneumoniae Spase can be found in reference (Peng, et al. (2001) J. Bacterol. 183, 621-627).
(§2) “IC50” refers to the concentration of inhibitor required to achieve a half-maximal degree of inhibition of SPase I. The IC50 is determined by a fluorimetric assay as described in Peng, et al. (2001) J. Bacterol. 183, 621-627, with a fluorogenic peptide used as substrate as described therein. The reaction is performed in 50 μls of reaction mixture containing 50 nM of either E. coli or S. pneumoniae SPase I, 50 μM substrate, and a series dilution of inhibitor. Inhibitors are dissolved in dimethylsulfoxide (DMSO). Compounds in DMSO are diluted in reaction buffer. The final DMSO concentration in the reaction mixtures is 2% (v/v). Reaction mixtures are incubated at 37° C. for 1-2 hrs. The IC50 is calculated using a nonlinear regression method with GraphPad Prism™ Software (GraphPad G3-A13127-507). The inhibitory activity of lipoglycopeptides 1-8 against both E. coli and S. pneumoniae signal peptidases, are summarized in Table 7.

[3] = test system: S. pneumoniae R6; assay: Broth micro-dilution MIC, S. pneumoniae R6; type: cell-based; settings: 23-24 hr at 37° C.; for MIC: Streptococcus pneumoniae, R6, 2XsTH broth; for MIC, S. pneumoniae R6: 2XsTH broth
Description: as §1

[4] = test system: Staphylococcus aureus (ATCC 33592); assay: Beta-lactamase release assay; type: cell-based; settings: beta-lactamase-producing S. aureus ATCC 33592, 2 hr incubation with inhibitor
Description: In Staphylococcus aureus, signal peptidase cleaves beta-lactamase, resulting in the release of beta-lactaidase into the medium. In this example, the ability of lipoglycopeptides 1,2, and 5 to inhibit the release of beta-lactamase from Staphylococcus aureus into the medium is examined.
Staphylococcus aureus (ATCC 33592) cells are grown overnight in a series dilution in Brain Heart Infusion (BHI) (Gerhardt, P., et al., (1994) Methods for General and Molecular Bacteriology. American Society for Microbiology, Washington, D.C.) medium in a 37° C. incubator containing 5% CO2. Cultures with an OD660 less than 0.3 are centrifuged, and the cells are washed once with fresh BHI medium. The cells are then resuspended in fresh BHI medium to an initial OD660 of 0.15-0.2. At the same time, the selected inhibitor is diluted from the DMSO stock solution into BHI medium at different concentrations, and is added to the cells which are then incubated at 37° C. under 5% CO2 for 2 hr. The final DMSO concentration in the reaction mixtures is 1% (v/v). The OD660 is measured at the end of incubation. The cells are centrifuged, and the supernatant is saved for the determination of secreted beta-lactamase. The pellet is washed once with fresh BHI medium, re-suspended in the equivalent volume of fresh BHI medium, frozen, and then thawed […]. for three cycles, and used for the determination of retained beta-lactamase. For the determination of beta-lactamase activity, 100 μl reaction mixture (30-50 μls of supernatant or lysed cells) is incubated with 250 μM nitrocefin in 1×PBS buffer (phosphate buffered saline) (pH 6.8) at 37° C. for 30-60 min. Nitrocefin is the substrate for beta-lactamase. Cleavage of nitrocefin results in an increase in absorbance at 482 nm. The absorbance at 482 nm (OD482) is measured at the beginning and at the end of the reaction. The secreted and the retained beta-lactamase activities are calculated based upon the ΔOD482.

[5] = target: T2, E. coli SPase I (Escherichia coli, UniProt P00803, I81L); assay: Fluorimetric IC50 determination, E. coli signal peptidase; type: biochemical
T2 construct: His-tag (inferred from vector pET15b cloned at NdeI/XhoI and Ni-NTA purification); made in house; host or cells: E. coli BL21(DE3)
Description: Cloning and expression of the E. coli SPase I gene is performed by polymerase chain reaction (PCR) using E. coli genomic DNA as a template and two oligonucleotides as primers: 5′-[…]-3′ (SEQ ID NO: 1) and 5′-[…]-3′ (SEQ ID NO:2). The primers are designed to contain NdeI and XhoI restriction sites at the 5′-ends, respectively, to enable cloning into the bacterial expression vector pET15b (Novagen). The primers are synthesized based upon the published sequence of E. coli SPase I (Wolfe, et al. (1983) J. Biol. Chem. 258, 12073-12080).
Expression vector pET15b-E. coli SPase is constructed by replacing the NdeI/XhoI fragment of pET15b with the PCR fragment that is purified and digested with Ndel and XhoI. The identity of the cloned gene is confirmed by DNA sequencing. For expression of E. coli SPase I, E. coli strain BL21(DE3)(Stratagene) is transformed with pET15b-E. coli SPase, and grown and induced with 0.4 mM IPTG (isopropryl-1-thio-β-D-galactopyranoside) as described in Studier, et al. (1990) Methods Enzymol. 185, 60-89.
For purification of E. coli SPase T, one liter of IPTG-induced E. coli BL21(DE3) cells harboring pET15b-E coli SPase is harvested by centrifugation and re-suspended in 50 ml of lysis buffer containing 50 mM Na2HPO4, 300 mM NaCl, pH 8.0, and sonicated 5 min. on ice. The lysate is then centrifuged at 50,000 g for 1 hr at 4° C. The resultant supernatant is discarded, the pellet is re-suspended, and sonicated for 5 min. in 20 ml of lysis buffer containing 8 M urea. After centrifugation at 50,000 g for 1 hr at 4° C., the supernatant is loaded onto a 5 ml column of pre-equilibrated Ni-nitrilotriacetic acid (NTA) that is then washed with 120 ml of refolding buffer (50 mM NaH2PO4, 300 mM NaCl, 15 mM imidazole) containing a continuous urea gradient from 6 to 1 M with a flow rate of 1 ml/min. The protein is eluted with 20 ml of elution buffer (20 mM Tris-HCl, pH 8.0, 20% glycerol, 1 M urea and 100 mM imidazole), and 1 ml fractions are collected and utilized for enzyme assay.
as §2
Target sequence in this assay (P00803 77-324 I81L): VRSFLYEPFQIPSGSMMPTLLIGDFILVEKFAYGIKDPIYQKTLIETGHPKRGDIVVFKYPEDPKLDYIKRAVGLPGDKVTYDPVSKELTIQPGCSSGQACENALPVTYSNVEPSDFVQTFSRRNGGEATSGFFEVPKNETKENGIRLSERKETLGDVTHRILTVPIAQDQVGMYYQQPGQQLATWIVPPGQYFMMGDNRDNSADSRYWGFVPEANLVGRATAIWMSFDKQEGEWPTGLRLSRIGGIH

[6] = test system: Staphylococcus aureus SA027; assay: Broth micro-dilution MIC, S. aureus SA027; type: cell-based; settings: MHII broth, 23-24 hr at 37° C.
Description: as §1

[7] = test system: Haemophilus influenzae ATCC 49247; assay: Broth micro-dilution MIC, H. influenzae ATCC 49247; type: cell-based; settings: ATCC49247, read-out: MIC, H. influenzae ATCC49247
Description: as §1

[8] = test system: E. coli EL744; assay: Broth micro-dilution MIC, E. coli EL744; type: cell-based; settings: Escherichia coli, MHII broth, 23-24 hr at 37° C.
Description: as §1

[9] = target: T2, E. coli SPase I; assay: Kinetic analysis by HPLC assay with non-fluorogenic peptide substrate; type: biochemical
Description: A kinetic analysis is performed with E. coli SPase I and the non-fluorogenic peptide substrate by HPLC assay as described in Peng, et al. (2001) J. Bacterol. 183, 621-627. 50 μl of reaction volume contains 50 nM E. coli SPase I with different concentrations of substrate and lipoglycopepetide inhibitors. The reaction mixtures are incubated at room temperature for 30 mins., and terminated by the addition of an equal amount of 8 M urea. The final concentration of DMSO in the reaction mixtures is 2%. Substrate cleavage is analyzed by HPLC as described in Peng, et al. (2001) J. Bacterol. 183, 621-627. The initial rate, K1, and inhibition type of the inhibitor is calculated with Sigma Plot 2000, Version 6.2 with enzyme kinetics module (SPSS, Inc., Cat No. 3703564).

T1 sequence (O07344 whole entry): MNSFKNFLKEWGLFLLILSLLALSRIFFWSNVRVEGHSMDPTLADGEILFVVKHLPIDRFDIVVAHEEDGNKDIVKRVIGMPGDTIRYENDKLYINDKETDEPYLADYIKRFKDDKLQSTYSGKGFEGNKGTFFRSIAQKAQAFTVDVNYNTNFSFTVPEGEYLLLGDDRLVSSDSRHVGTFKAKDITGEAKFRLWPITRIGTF

| Structure (SMILES) | MIC [1] [µg/mL] | IC50 [2] [nM] | MIC [3] [µg/mL] | inhibition of secretion of beta-lactamase [4] | IC50 [5] [nM] | MIC [6] [µg/mL] | MIC [7] [µg/mL] | MIC [8] [µg/mL] | MIC, S. pneumoniae R6 [3] [µg/mL] | Ki [9] [nM] |
| --- | --- | --- | --- | --- | --- | --- | --- | --- | --- | --- |
| CC(C)CCCCCCCCCCCCC(=O)N(C)C(CO)C(=O)NC(C)C(=O)NCC(=O)N(C)C1C(=O)NC(C)C(=O)NC(C(=O)O)Cc2ccc(O)c(c2)-c2cc1cc(O)c2OC1OC(C)C(O)C(O)C1O (stereo not shown) [Compound 1] | 8 (≈ 7.67 µM) | 7100 | 16 (≈ 15.3 µM) | inhibit the secretion of beta-lactamase | 170 | 32 (≈ 30.7 µM) | 64 (≈ 61.3 µM) | 32 (≈ 30.7 µM) |  |  |
| CCCCCCCCCCCCCCCC(=O)N(C)C(CO)C(=O)NC(C)C(=O)NCC(=O)N(C)C1C(=O)NC(C)C(=O)NC(C(=O)O)Cc2ccc(O)c(c2)-c2cc1cc(O)c2OC1OC(C)C(O)C(O)C1O (stereo not shown) [Compound 2] | 8 (≈ 7.67 µM) | 10300 | 8 (≈ 7.67 µM) | inhibit the secretion of beta-lactamase | 190 | 64 (≈ 61.3 µM) | 64 (≈ 61.3 µM) | 32 (≈ 30.7 µM) | 16 (≈ 15.3 µM) | 158 |
| CC(C)CCCCCCCCCCCC(=O)N(C)C(CO)C(=O)NC(C)C(=O)NCC(=O)N(C)C1C(=O)NC(C)C(=O)NC(C(=O)O)Cc2ccc(O)c(c2)-c2cc1ccc2OC1OC(C)C(O)C(O)C1O (stereo not shown) [Compound 3] |  | 7000 |  |  | 130 |  |  |  |  |  |
| CCCCCCCCCCCCCCC(=O)N(C)C(CO)C(=O)NC(C)C(=O)NCC(=O)N(C)C1C(=O)NC(C)C(=O)NC(C(=O)O)Cc2ccc(O)c(c2)-c2cc1ccc2OC1OC(C)C(O)C(O)C1O (stereo not shown) [Compound 4] |  | 5900 |  |  | 130 |  |  |  |  |  |
| CC(C)CCCCCCCCCCCCC(=O)N(C)C(CO)C(=O)NC(C)C(=O)NCC(=O)N(C)C1C(=O)NC(C)C(=O)NC(C(=O)O)Cc2ccc(O)c(c2)-c2cc1ccc2OC1OC(C)C(O)C(O)C1O (stereo not shown) [Compound 5] | 4 (≈ 3.89 µM) | 2400 | 16 (≈ 15.6 µM) | inhibit the secretion of beta-lactamase | 130 | > 64 | > 64 | 16 (≈ 15.6 µM) | 8 (≈ 7.79 µM) | 57.5 |
| CCCCCCCCCCCCCC(=O)N(C)C(CO)C(=O)NC(C)C(=O)NCC(=O)N(C)C1C(=O)NC(C)C(=O)NC(C(=O)O)Cc2ccc(O)c(c2)-c2cc1ccc2OC1OC(C)C(O)C(O)C1O (stereo not shown) [Compound 6] |  | 6600 | 64 (≈ 64.1 µM) |  | 110 | > 64 | > 64 | 8 (≈ 8.01 µM) |  |  |
| CC(C)CCCCCCCCCCC(=O)N(C)C(CO)C(=O)NC(C)C(=O)NCC(=O)N(C)C1C(=O)NC(C)C(=O)NC(C(=O)O)Cc2ccc(O)c(c2)-c2cc1ccc2OC1OC(C)C(O)C(O)C1O (stereo not shown) [Compound 7] |  | 6100 | > 64 |  | 110 | > 64 | > 64 | 16 (≈ 16 µM) |  | 50.4 |
| CC(C)CCCCCCCCCCC(=O)N(C)C(CO)C(=O)NC(C)C(=O)NCC(=O)N(C)C1C(=O)NC(C)C(=O)NC(C(=O)O)Cc2ccc(O)c(c2)-c2cc1cc(O)c2OC1OC(C)C(O)C(O)C1O (stereo not shown) [Compound 8] |  | 24900 | > 64 |  | 110 | > 64 | > 64 | 8 (≈ 7.88 µM) |  | 110 |
